Data published in ChEMBL document CHEMBL1138756, “Entry into a new class of potent proteasome inhibitors having high antiproliferative activity by structure-based design” (J Med Chem, 2004).

Assays:
Proteasome [1] = assay: Inhibition of trypsin-like proteolytic activity of purified human proteasome; type: subcellular
Proteasome [2] = assay: Inhibition of chymotrypsin-like proteolytic activity of purified human proteasome; type: subcellular
Proteasome [3] = assay: Inhibition of post glutamyl l-peptide (PGPH) proteolytic activity of purified human proteasome
MDA-MB-435 = assay: Inhibition of MDA-MB 435 cell proliferation; type: functional, cell-based; conditions: Homo sapiens
Proteasome [4] = assay: Inhibition of chymotrypsin-like proteolytic activity of purified human proteasome in cultured MDA-MB 435 Cells; type: subcellular

COc1ccc(CNC(=O)[C@@H](NC(=O)[C@H](Cc2cc(OC)c(OC)c(OC)c2)NC(=O)Cc2cccc(Oc3ccccc3)c2)C(C)C)c(O)c1
IC50 (Proteasome [1]): > 20000 nM | IC50 (Proteasome [2]): 10 nM | IC50 (Proteasome [3]): > 20000 nM | IC50 (MDA-MB-435): 60 nM | IC50 (Proteasome [4]): 20 nM

COc1ccc(CNC(=O)[C@@H](NC(=O)[C@H](NCc2cc(OC)c(OC)c(OC)c2)[C@H](O)[C@H](Cc2ccccc2)NC(=O)[C@@H](NC(=O)Cc2cccc3ccccc23)C(C)(C)C)C(C)C)c(O)c1
IC50 (Proteasome [1]): > 20000 nM | IC50 (Proteasome [2]): 7 nM | IC50 (Proteasome [3]): > 20000 nM | IC50 (MDA-MB-435): 1500 nM

COc1ccc(CNC(=O)[C@@H](NC(=O)[C@H](Cc2ccc(OC)c(OC)c2)NC(=O)Cc2cccc(Oc3ccccc3)c2)C(C)C)c(O)c1
IC50 (Proteasome [1]): > 20000 nM | IC50 (Proteasome [2]): 60 nM | IC50 (Proteasome [3]): > 20000 nM | IC50 (MDA-MB-435): 900 nM

COc1ccc(CN[C@@H](C(=O)N[C@H](C(=O)NCc2ccc(OC)cc2O)C(C)C)[C@H](O)[C@H](Cc2ccccc2)NC(=O)[C@@H](NC(=O)OCc2ccccc2)C(C)(C)C)cc1
IC50 (Proteasome [1]): > 20000 nM | IC50 (Proteasome [2]): 900 nM | IC50 (Proteasome [3]): > 20000 nM

COc1ccc(CNC(=O)[C@@H](NC(=O)[C@H](Cc2ccc(OC)c(OC)c2)NC(=O)Cc2ccccc2)C(C)C)c(O)c1
IC50 (Proteasome [2]): 1000 nM
